{
  "source": "patent US20110077230A1",
  "about": "“COPPER ORGANOCOMPLEXES, USE THEREOF AS ANTITUMOR MEANS AND FOR PROTECTING HEALTHY TISSUE FROM IONIZING RADIATION” (CHARITE - UNIVERSITATSMEDIZIN BERLIN, priority 2008, published 2011)",
  "key": {"[1]": {"tested_on": "colon adenocarcinoma tumor (AKATOL)", "test": "Transplanted colon adenocarcinoma (AKATOL), intraabdominal injection", "type": "in vivo, mice of the BALB line", "set-up": "Average weight: unit not given here", "details": "for Average volume of tumor: day 21", "experimental": "A suspension of tumor cells was injected into the thighs of 15 mice of the BALB line. The animals received the complex A preparation at a dose of 5 mg/kg 4, 6, 8 and 11 days after implantation.\nGroup I received the preparation dissolved in DMSO and dispersed in a 4% suspension in physiological saline.\nGroup II received the preparation in Tween 60.\nGroup III remained untreated.\nOn day 21 of the experiment the animals were sacrificed and examined."}, "[2]": {"tested_on": "thymocytes", "test": "Membrane potential of thymocytes (fluorescent dye)", "type": "cell-based, rats of the Wistar line", "experimental": "The Ehrlich ascites carcinoma (EAC) was obtained from white male mice of the strain MNR1 and the thymocytes from the thymus of rats of the Wistar line. Vitality of the cells was tested by vital staining using trypan blue and experiments and determined to be no less than 95% in all experiments. The NADH state in the EAC cells was assessed with reference to their fluorescence intensity. Measurement of the intracellular calcium concentration was performed according to the standard methodology of fluorescence using chlortetracycline. The membrane potential was measured using the fluorescent dye No. 1104. NADH is a source of electrons in the oxidative phosphorylation process. […] These effects are directed to inhibiting the NAD-dependent dehydrogenase. As a result, the respiratory chain in the tumor cells is inhibited.\nMoreover, the complexes A and C have an influence on the membrane potential of thymocytes."}, "[3]": {"details": "Group I: 5 mg/kg in DMSO/physiological saline"}},
  "data": [
    {"substance": "Copper-sarcolysine hydrochloride complex [complex A]", "values": [
      {"measurement": "Average volume of tumor", "setting": "[1]; Group I: 5 mg/kg in DMSO, 4% suspension in physiological saline", "value": 1.315, "unit": "cm^3"},
      {"measurement": "% inhibition, mass percent", "setting": "[1]; [3]", "value": 60.4, "unit": "%"},
      {"measurement": "% inhibition, volume percent", "setting": "[1]; [3]", "value": 87.1, "unit": "%"},
      {"measurement": "Average weight", "setting": "[1]; [3]", "value": 1.25},
      {"measurement": "% inhibition, mass percent", "setting": "[1]; Group II: 5 mg/kg in Tween 60", "value": 95.85, "unit": "%"},
      {"measurement": "% inhibition, volume percent", "setting": "[1]; Group II: 5 mg/kg in Tween 60", "value": 97.8, "unit": "%"},
      {"measurement": "Average weight", "setting": "[1]; Group II: 5 mg/kg in Tween 60", "value": 0.25},
      {"measurement": "Average volume of tumor", "setting": "[1]; Group II: 5 mg/kg in Tween 60", "value": 0.217, "unit": "cm^3"},
      {"measurement": "influence on the membrane potential of thymocytes", "setting": "[2]", "value": "hyperpolarization of the cell membranes"}
    ]}
  ]
}
